The record followed here is ChEMBL document CHEMBL1201862, “PubChem BioAssay data set” (2004).

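All cell lines were grown in 96-well plates and treated with compound for 48 hours. GI50 is the concentration that inhibits growth by half.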 Active and inactive are the calls of the source. Rule as the data show it: active = GI50 up to about 1.1 µM and inactive = higher. A value given as a limit tells only on which side of the number the result lay.

Common to all, as to assay: growth of human tumour cells (NCI), 48 h
In assay [1] the test system is PC-3.
Assay [2] relates to A549.
Assay [3] relates to NCI-H460.
Assay [4] relates to HCT-116.
Assay [5] relates to K562.
Assay [6] relates to MOLT-4.
The subject of assay [7] is SK-MEL-2.
The subject of assay [8] is HT-29.
Assay [9] concerns MDA-N.
Assay [10] deals with 786-0.
Assay [11] concerns BT-549.
Assay [12] relates to MDA-MB-435.
Assay [13] concerns MCF7.
For assay [14], the system named is MDA-MB-231.
For assay [15], the system named is T47D.
Assay [16] relates to CAKI-1.
Assay [17] relates to SN12C.
Assay [18] has as its system NCI-H522.
For assay [19], the system named is HCC 2998.
In assay [20] the test system is CCRF-CEM.

Turning to `O=c1[nH]c2cc(Cl)ccc2nc1/C(=N/Nc1ccccc1)C(O)c1ccco1` (stereo not given), the GI50 in assay [1], in assay [2], in [3], in [4], in assay [5] and in [6] was > 100 µM (inactive) in each case. Besides, the GI50 in assay [7], in [8], in [9], in assay [10], in assay [11] and in [12] was > 100 µM (inactive) each time. The GI50 in [13], in [14], in assay [15], in assay [16], in assay [17] and in [18] was > 100 µM (inactive) throughout. The GI50 in assay [19] and in [20] was > 100 µM (inactive) in each case.

Regarding `C[C@H]1CC[C@]2(NC1)O[C@H]1C[C@H]3[C@@H]4CC[C@H]5C[C@@H](O[C@@H]6O[C@H](CO)[C@H](O[C@@H]7O[C@H](CO)[C@@H](O)[C@H](O[C@@H]8OC[C@@H](O)[C@H](O)[C@H]8O)[C@H]7O[C@@H]7O[C@H](CO)[C@@H](O)[C@H](O)[C@H]7O)[C@H](O)[C@H]6O)CC[C@]5(C)[C@H]4CC[C@]3(C)[C@H]1[C@@H]2C` [TOMATINE], the GI50 is 0.719 µM (active) in assay [1]; 1.55 µM (inactive) in [2]; 2.18 µM (inactive) in assay [3]; 1.7 µM (inactive) in assay [4]; 2.74 µM (inactive) in [5]; 2.41 µM (inactive) in assay [6]. The GI50 is 1.68 µM (inactive) in [7]; 1.91 µM (inactive) in assay [8]; 0.558 µM (active) in assay [9]; 1.29 µM (inactive) in assay [10]; 2.37 µM (inactive) in assay [11]; 1.41 µM (inactive) in assay [12]. The GI50 in [13] was 2.32 µM (inactive); in assay [14], 1.3 µM (inactive); in assay [15], 1.97 µM (inactive); in assay [16] it was 0.753 µM (active); in [17], 1.43 µM (inactive); in [18], 1.62 µM (inactive). Besides, the GI50 is 0.993 µM (active) in [19] and 2.52 µM (inactive) in assay [20].

Take `C=CCN1C(=O)/C(=C/c2ccc(Cl)cc2)N=C1SC/C=C/C`: the GI50 is 31.4 µM (inactive) in assay [1]; 11.2 µM (inactive) in assay [2]; 62.4 µM (inactive) in [3]; 17 µM (inactive) in [4]; 25.5 µM (inactive) in assay [5]; 17.5 µM (inactive) in assay [6]. In addition, the GI50 in assay [7] is 24.2 µM (inactive); in [8], 30.9 µM (inactive); in assay [9], 25.3 µM (inactive); in assay [10], 33 µM (inactive); in assay [11], 33.9 µM (inactive); in assay [12] it was 33.6 µM (inactive). Also, the GI50 in assay [13] is 26.6 µM (inactive); in assay [14] it was 42.4 µM (inactive); in assay [15], 21 µM (inactive); in assay [16] it was 61.2 µM (inactive); in assay [17], 21.7 µM (inactive); in [18], 28.4 µM (inactive). Besides, the GI50 in assay [19] was 49.9 µM (inactive); in [20], 39.8 µM (inactive).

For `O=C(CCCN1CCC2(CC1)NC(=O)c1ccccc1O2)c1ccc(F)cc1`, the GI50 in assay [1] was 73.8 µM (inactive); in assay [2] it was > 100 µM (inactive); in assay [3], > 100 µM (inactive); in assay [4], > 100 µM (inactive); in [5], 39.7 µM (inactive); in assay [6], 50.1 µM (inactive). Also, the GI50 was > 100 µM (inactive) in [7]; 43.3 µM (inactive) in [8]; > 100 µM (inactive) in assay [9]; > 100 µM (inactive) in assay [10]; 46.6 µM (inactive) in [11]; > 100 µM (inactive) in assay [12]. Besides, the GI50 was 94.6 µM (inactive) in assay [13]; > 100 µM (inactive) in assay [14]; 84.3 µM (inactive) in assay [15]; > 100 µM (inactive) in assay [16]; > 100 µM (inactive) in assay [17]; > 100 µM (inactive) in [18]. Besides, the GI50 in assay [19] is > 100 µM (inactive); in [20], 90.4 µM (inactive).

With `CCC(CCCC[C@H]1CC[C@@H]2CC(=O)C[C@H]12)OC` (stereo not given in full), the GI50 is > 100 µM (inactive) in [1]; > 100 µM (inactive) in assay [2]; > 100 µM (inactive) in [3]; 76 µM (inactive) in assay [4]; 25.6 µM (inactive) in [5]; > 100 µM (inactive) in assay [6]. Moreover, the GI50 in assay [7] was > 100 µM (inactive); in assay [8], > 100 µM (inactive); in [9] it was > 100 µM (inactive); in [10], > 100 µM (inactive); in [11], 50.7 µM (inactive); in [12] it was > 100 µM (inactive). The GI50 in [13], in assay [14], in assay [15], in [16], in assay [17] and in assay [18] was > 100 µM (inactive) in each case. In addition, the GI50 in assay [19] and in [20] was > 100 µM (inactive) throughout.

Consider `O=C(O)c1c(O)c2cc(Br)ccc2oc1=O`, for which the GI50 in [1], in [2], in assay [3], in assay [4], in assay [5] and in [6] was > 100 µM (inactive) in each case. Besides, the GI50 in assay [7], in [8], in assay [9], in assay [10], in assay [11] and in assay [12] was > 100 µM (inactive) throughout. Also, the GI50 in [13], in [14], in [15], in [16], in assay [17] and in [18] was > 100 µM (inactive) each time. Moreover, the GI50 in assay [19] and in [20] was > 100 µM (inactive) in each case.

`COC(=O)c1cc2c(o1)Sc1ccccc1NC2=O`: the GI50 in [1], in assay [2], in assay [3], in [4], in assay [5] and in assay [6] was > 100 µM (inactive) throughout. Moreover, the GI50 in [7] is > 100 µM (inactive); in [8], > 100 µM (inactive); in assay [9], > 100 µM (inactive); in assay [10], 87.1 µM (inactive); in assay [11], > 100 µM (inactive); in assay [12] it was > 100 µM (inactive). In addition, the GI50 is > 100 µM (inactive) in assay [13]; > 100 µM (inactive) in assay [14]; > 100 µM (inactive) in assay [15]; > 100 µM (inactive) in assay [16]; > 100 µM (inactive) in assay [17]; 2.75 µM (inactive) in [18]. Also, the GI50 in assay [19] and in assay [20] was > 100 µM (inactive) in each case.

`COc1cc(Br)cc2nc(-c3cccs3)oc12`: the GI50 was > 100 µM (inactive) in assay [1]; > 100 µM (inactive) in [2]; > 100 µM (inactive) in assay [3]; > 70.6 µM (inactive) in assay [4]; > 100 µM (inactive) in assay [5]; > 100 µM (inactive) in [6]. The GI50 in assay [7] was > 100 µM (inactive); in [8] it was > 100 µM (inactive); in assay [9] it was > 100 µM (inactive); in [10] it was > 56 µM (inactive); in assay [11], > 67.8 µM (inactive); in [12], > 100 µM (inactive). Besides, the GI50 in [13] was 2.3 µM (inactive); in assay [14], > 42.2 µM (inactive); in assay [15] it was 6.15 µM (inactive); in assay [16], > 86.5 µM (inactive); in assay [17], > 100 µM (inactive); in assay [18] it was 99.8 µM (inactive). In addition, the GI50 in assay [19] and in [20] was > 100 µM (inactive) each time.

Regarding `C[C@H](CCC(=O)O)[C@H]1CC[C@H]2[C@@H]3[C@H](O)[C@H](O)[C@@H]4C[C@H](O)CC[C@]4(C)[C@H]3CC[C@]12C` [HYOCHOLIC ACID], the GI50 in assay [1], in assay [2], in assay [3], in assay [4], in assay [5] and in assay [6] was > 100 µM (inactive) in each case. Moreover, the GI50 in assay [7], in assay [8], in assay [9], in assay [10], in assay [11] and in assay [12] was > 100 µM (inactive) each time. The GI50 in [13], in assay [14], in assay [15], in [16], in assay [17] and in assay [18] was > 100 µM (inactive) each time. Besides, the GI50 in assay [19] and in [20] was > 100 µM (inactive) throughout.
